From patent US12059400B2, “Medical compound” (VERA SALUS RICERCA S.R.L., priority 2017, dated 2024)
Entries after “also recorded” stand apart in the source; their conditions may differ.

Tests used:
[1] = system: human melanoma cells (A375); assay: Cell proliferation, crystal violet method; type: cell-based; conditions: for growth of melanoma cells (A375) vs vehicle control: 60 μM, FIG. 1a, 1b; for IC50: crystal violet, spectrophotometer, read-out: IC50 anti-proliferative effect, Melanoma (A375)
Protocol: (§1) The compound according to the invention, and in particular the synthetic quercetin derivatives described and illustrated herein were investigated in vitro by using human tumour cells and assessing their impact on the tumour proliferative capacity, with regard to the tumours described above. In particular, the following human tumour cell lines were assessed experimentally: 1) HCT116, colon adenocarcinoma cells; 2) H1299, lung adenocarcinoma cells; 3) A375, melanoma cells, and 4) A431, squamous skin cell carcinoma; 5) 786-0, renal carcinoma cells; 6) PC3, prostate carcinoma cells; 7) BT549, mammary carcinoma cells; 8) CAL27, tongue carcinoma cells (belonging to the head-and-neck carcinomas); 9) HepG2, hepatocellular carcinoma cells; 10) PANC-1, pancreas carcinoma cells; 11) T24, bladder carcinoma cells; 12) OVCAR-3, ovarian carcinoma cells. In addition, a normal human cell line, WS1 (skin fibroblasts) was also treated with the novel synthetic compounds.
(§2) Cell proliferation was quantified by the crystal violet method with a spectrophotometer. In short, after acquiring serial images (0, 24 and 48 hrs) with the EVOS XL Cell Imaging System microscope (Thermo Fisher Scientific), the cells imaged at 48 hrs were fixed with paraformaldehyde (4%) and stained with Crystal Violet (1%). Then, the specific absorbance (λ=590 nm) at 48 hrs was measured with a spectrophotometer (Infinite®200 PRO, Tecan). Data analysis was carried out by using ad-hoc Excel files for graphical representation and statistical processing (t-test). Moreover, the results obtained with Crystal Violet were confirmed by using another cell proliferation assessment method based on the real time cellular analyzer XCELLigence RTCA DP (ACEA Biosciences, Inc.). This tool allows cell growth to be monitored from electrical impedance-derived quantitative values (the so-called Cell Index) measured by tiny electrodes located at the base of the culture wells. Proliferation is monitored for several days (5-7) by setting a Cell Index per minute measure on the instrument. The data are analysed by processing various parameters calculated by the dedicated software, such as the cell duplication time, the slope and the Max Cell Index.
(§3) Cell proliferation was quantitated spectrophotometrically by the crystal violet method.

[2] = system: human mammary carcinoma cells (BT549); assay: Cell proliferation, crystal violet method; type: cell-based; conditions: for BT549 cell growth vs vehicle control: 80 μM, FIG. 6a, 6b; for IC50: crystal violet, spectrophotometer, read-out: IC50 anti-proliferative effect, BRC - (BT549)
Protocol: as §1, §2, §3

[3] = system: human colon carcinoma cells (HCT116); assay: Cell proliferation, crystal violet method; type: cell-based; conditions: for HCT116 cell growth vs vehicle control: 100 μM, FIG. 3a, 3b, 13a, 13b; for IC50: crystal violet, spectrophotometer, read-out: IC50 anti-proliferative effect, CRC (HCT116)
Protocol: as §1, §2, §3

[4] = system: human hepatocellular carcinoma cells (HepG2); assay: Cell proliferation, crystal violet method; type: cell-based; conditions: for HepG2 tumour growth vs vehicle control: 80 μM, FIG. 8a, 8b; for IC50: crystal violet, spectrophotometer, read-out: IC50 anti-proliferative effect, HCC - HepG2
Protocol: as §1, §2, §3

[5] = system: human tongue carcinoma cells (Cal27); assay: Cell proliferation, crystal violet method; type: cell-based; conditions: for Cal27 tumour growth vs vehicle control: 80 μM, FIG. 7a, 7b; for IC50: crystal violet, spectrophotometer, read-out: IC50 anti-proliferative effect, HNC - (Cal27)
Protocol: as §1, §2, §3

[6] = system: H1299, lung adenocarcinoma cells; assay: Cell proliferation, crystal violet method; type: cell-based, human; conditions: spectrophotometer, read-out: IC50 anti-proliferative effect, LC (H1299)
Protocol: as §1, §2, §3

melanoma, A375 = assay: Apoptosis, acridine orange/ethidium bromide method; type: cell-based, human; conditions: 2 hrs; Compound 2 40 μM, 5 40 μM, 4 40 μM, 3 60 μM, 1 80 μM; FIG. 18
Source text: Tumour cell apoptosis was quantified by the acridine orange/ethidium bromide (AO/EB) method and by using a fluorescence microscope and image-J. In short, after treatment with the test compounds (2 hrs), the tumour cells were placed in contact with an AO/EB solution (in sterile H2O) and photographed with a fluorescence microscope (Leica) by using the ≥20× objective (so as to distinguish the morphology of cell nuclei). In this way, the living cells are labelled with AO and emit fluorescence in the green channel, while the necrotic cells, which have undergone the rupture of the plasma membrane, are permeable to EB and emit fluorescence in the red channel. In contrast, apoptotic cells are permeable to both AO and EB, and as a consequence of the colocalization of the two fluorescences appear yellow-orange when the two individual microscope-acquired fluorescences are superimposed by using the editing program Image J. The objective quantification of the colocalization areas (apoptotic cells) and the non-colocalization areas (living or necrotic cells) was carried out on a number of cells ≥300/condition through the use of Apoptosis Correlator (ImageJ plug-in) and shown as the percentage of living (green), necrotic (red) or apoptotic (yellow-orange) tumour cells. Data analysis was carried out by using GraphPad Prism 6 for graphical representation and statistical processing (2-way ANOVA test).

[7] = system: human colon carcinoma cells (HCT116); assay: Intracellular ROS levels, DCFH2-DA probe; type: cell-based; conditions: for intracellular ROS levels in HCT116 cells: 2 hrs of treatment, at the respective anti-proliferative IC50s, DCF fluorescence in A.U., FIG. 22 left
Protocol: Intracellular ROS levels were measured in tumour cells by using the probe 2,7-dichlorodihydrofluorescein diacetate (DCFH2-DA) and a fluorescence spectrophotometer. DCFH2-DA diffuses readily through the cell membrane into the cytosolic space of the cell where it is hydrolyzed by intracellular esterases into the non-permeable DCFH2 product. DCFH2 oxidation by intracellular ROS (mainly H2O2, HO·, ROO·, NO· and ONOO) results in the production of intracellular fluorescent DCF, whose concentration is directly proportional to the levels of ROS in the cell. […] All the experiments were repeated at least 3 times. Data analysis was carried out with GraphPad Prism 6 for graphical representation and statistical processing (1-way ANOVA test).

2-(3,4-dihydroxyphenyl)-5,7-dihydroxy-4-oxo-4H-chromen-3-yl palmitate [Compound 5]
growth of melanoma cells (A375) vs vehicle control [1]: significantly inhibit
IC50 [1]: 16.4 µM
BT549 cell growth vs vehicle control [2]: significantly inhibit
IC50 [2]: 46.5 µM
HCT116 cell growth vs vehicle control [3]: significantly inhibit
IC50 [3]: 28.8 µM
HepG2 tumour growth vs vehicle control [4]: significantly inhibit; also recorded: superior to that of quercetin
IC50 [4]: 106 µM
Cal27 tumour growth vs vehicle control [5]: significantly inhibit; also recorded: superior to that of quercetin
IC50 [5]: 19.7 µM
IC50 [6]: 50.5 µM
induction of apoptosis in A375 (melanoma, A375): induced apoptosis

2-(3,4-Dihydroxyphenyl)-3-hexyloxy-5,7-dihydroxy-4H-chromen-4-one [Compound 2]
growth of melanoma cells (A375) vs vehicle control [1]: significantly inhibit
IC50 [1]: 19.3 µM
BT549 cell growth vs vehicle control [2]: significantly inhibit
IC50 [2]: 156 µM
HCT116 cell growth vs vehicle control [3]: significantly inhibit
IC50 [3]: 42.8 µM
HepG2 tumour growth vs vehicle control [4]: significantly inhibit
IC50 [4]: 265 µM
Cal27 tumour growth vs vehicle control [5]: significantly inhibit
IC50 [5]: 63.2 µM
IC50 [6]: 50.7 µM
induction of apoptosis in A375 (melanoma, A375): induced apoptosis
intracellular ROS levels in HCT116 cells [7]: significantly raise

2-(3,4-dihydroxyphenyl)-5,7-dihydroxy-4-oxo-4H-chromen-3-yl acetate [Compound 4]
growth of melanoma cells (A375) vs vehicle control [1]: significantly inhibit
IC50 [1]: 20.1 µM
BT549 cell growth vs vehicle control [2]: significantly inhibit
IC50 [2]: 48.6 µM
HCT116 cell growth vs vehicle control [3]: significantly inhibit
IC50 [3]: 22.9 µM
HepG2 tumour growth vs vehicle control [4]: significantly inhibit; also recorded: superior to that of quercetin
IC50 [4]: 54.4 µM
Cal27 tumour growth vs vehicle control [5]: significantly inhibit
IC50 [5]: 22.9 µM
IC50 [6]: 15.9 µM
induction of apoptosis in A375 (melanoma, A375): induced apoptosis

2-(3,4-Dihydroxyphenyl)-3-hexadecyloxy-5,7-dihydroxy-4H-chromen-4-one [Compound 3]
IC50 [1]: 48.1 µM
BT549 cell growth vs vehicle control [2]: significantly inhibit
IC50 [2]: 119 µM
HCT116 cell growth vs vehicle control [3]: significantly inhibit
IC50 [3]: 59.8 µM
HepG2 tumour growth vs vehicle control [4]: significantly inhibit; also recorded: superior to that of quercetin
IC50 [4]: 50.2 µM
Cal27 tumour growth vs vehicle control [5]: significantly inhibit
IC50 [5]: 36.7 µM
IC50 [6]: 34.9 µM
induction of apoptosis in A375 (melanoma, A375): induced apoptosis
intracellular ROS levels in HCT116 cells [7]: significantly raise

2-(3,4-Dihydroxyphenyl)-3-ethoxy-5,7-dihydroxy-4H-chromen-4-one [Compound 1]
IC50 [1]: 67.1 µM
BT549 cell growth vs vehicle control [2]: significantly inhibit
IC50 [2]: 191 µM
IC50 [3]: 166 µM
HepG2 tumour growth vs vehicle control [4]: significantly inhibit
IC50 [4]: 144 µM
Cal27 tumour growth vs vehicle control [5]: significantly inhibit
IC50 [5]: 15.6 µM
IC50 [6]: 100 µM
induction of apoptosis in A375 (melanoma, A375): induced apoptosis
intracellular ROS levels in HCT116 cells [7]: significantly raise
intracellular ROS levels in HCT116 cells after pretreatment with NAC ([7]; pretreatment with N-Acetyl-L-Cysteine 10 mM, FIG. 22 right): blocked
